Assay results published in PubChem BioAssay AID2060343 (Molecular Pharmacology Branch, DTP, NCI, 2025).
pIC50: −log10 of the molar value. Several values for one entry are separate records, joined by “and”; a condition that tells them apart may be missing. Equal values may be shown once.

Test system: 138582-337-R-J1-PDC spheroids with HUVEC/MSC, viability
Assay: Anticancer human tumor 138582-337-R-J1-PDC patient-derived Merkel cell tumor cell line growth inhibition [IpAb]
Conditions: for viability, T/C: stronger effect = lower value
Text: Combinatorial screen of targeted agents with ipatasertib and abemaciclib in multi-cell type tumor spheroids
A high-throughput screen of multi-cell type tumor spheroids was designed to identify active combinations of targeted small molecules and ipatasertib or abemaciclib. Complex spheroids include a stromal component modeled by human endothelial cells (HUVEC) and fibroblasts modeled by human mesenchymal stem cells (MSCs). The concentration ranges selected for each drug and investigational agent were based upon clinically achievable concentrations if the clinical Cmax of the agent was known.
Compounds. The drugs and investigational agents: ipatasertib (NSC767898), abemaciclib(NSC768073), selumetinib (NSC741078), trametinib (758246), adavosertib (NSC754352), everolimus (NSC733504), sapanisertib (NSC764658), vemurafenib (NSC761431), venetoclax (NSC766270), copanlisib (NSC809693), apelisib (NSC765974), palbociblib (NSC758247), vemurafenib (NSC761431), dabrafenib (NSC764134), ravoxertinib (NSC781343), BMS-387032 (NSC767048), sotorasib (NSC818433), talazoparib (NSC767125) and afursertib (NSC778305), were obtained from the National Cancer Institute (NCI) Developmental Therapeutics Program Chemical Repository. The FDA-approved anticancer drug set is available from the NCI Developmental Therapeutics Program. […] The stock solutions were prepared in dimethyl sulfoxide (DMSO, Sigma-Aldrich, St. Louis, MO, cat. D2650) at 800-fold the tested concentration and stored at -70 degrees C prior to their use. All drugs and investigational agents were tested over a range starting from a high concentration at or near the clinical Cmax and decreasing in half-log increments. If the clinical Cmax for an agent had not been determined, the highest concentration tested was 10 microM.
NCI60 Cell Culture. NCI60 cell lines were obtained from the NCI Developmental Therapeutics Program Tumor Repository. For each lot of cells, the Repository performed Applied Biosystems AmpFLSTR Identifiler testing with PCR amplification to confirm consistency with the published Identifier STR profile for each cell line. Cells were kept in continuous culture for no more than 20 passages. The optimal seeding densities for each of the cell lines at each time point assessed were determined prior to performing the concentration response studies. Briefly, the NCI60 human tumor lines were grown as monolayers in RPMI 1640 medium supplemented with 10% FBS and 2 mmol/L L-glutamine.
An additional 9 lines were from the NCI60 cell line panel including MDA-MB-231 breast carcinoma, MDA-MB-468 breast carcinoma, MCF7 breast carcinoma, Hs578T breast carcinoma, MALME-3M melanoma, SK-MEL-2 melanoma, SK-OV-3 ovarian carcinoma, DU-145 prostate carcinoma, PC-3 prostate carcinoma, all cell lines along with major genetic alterations are listed on Table 2. Pooled donor human umbilical vein endothelial cells (HUVEC, Lonza, cat. CC-2519) and human mesenchymal stem cells (hMSC, Lonza, cat. PT-2501) were purchased from Lonza (Walkersville, MD).
PDMR cell lines were grown in complete medium (DC medium): Dulbecco's modified Eagle's medium (DMEM)/F12 supplemented with 5% fetal bovine serum (FBS), 2 mM L-glutamine, 100 U/mL penicillin and 100 µg/ml streptomycin, 0.4 µg/ml hydrocortisone, 10 ng/ml epidermal growth factor (EGF) recombinant human protein, 24 µg/mL adenine, and 0.1 mg/mL primocin. During culture from frozen stock vials, PDMR cells were cultured in the same medium containing 10 µM Y-27632 (see Table 3). The PDCs were cultured in complete DMEM/F12 media without 10 microM Y-27632 dihydrochloride for at least two passages prior to the screen. The pooled donor HUVEC and hMSC were cultured in endothelial cell growth medium 2 (PromoCell, Heidelberg, Germany, cat. C-22011) and mesenchymal stem cell growth medium 2 (PromoCell, cat. C-28009), respectively. For all experiments, HUVEC and hMSC were used at passages </=5.
[…]
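Note: spheroids exposed to compounds for seven days.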
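Throughout, for viability, T/C: 100% = DMSO vehicle control viability.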

Which results are given for `Cc1nc(NC(=O)N2CCCC2C(N)=O)sc1-c1ccnc(C(C)(C)C(F)(F)F)c1` (stereo not given)?
viability, T/C (compound 0.0316 µM): 97.5% and 84.4%; viability, T/C (compound 0.1 µM): 80.2% and 88.7%; viability, T/C (compound 0.316 µM): 65.3% and 69.1%; viability, T/C (compound 1 µM): 59.3% and 53.7%; viability, T/C (compound 3.16 µM): 52.5% and 46.1%; viability, T/C (compound 10 µM): 29.6% and 18.7%; pIC50 (curve of compound): 5.69 and 5.75

What does the source list for `Cn1cnc2c(F)c(Nc3ccc(Br)cc3Cl)c(C(=O)NOCCO)cc21`?
viability, T/C (compound 0.00949 µM): 112% and 90.1%; viability, T/C (compound 0.03 µM): 96.5% and 82.8%; viability, T/C (compound 0.0949 µM): 98.2% and 82.7%; viability, T/C (compound 0.3 µM): 116% and 84%; viability, T/C (compound 0.949 µM): 109% and 97.7%; viability, T/C (compound 3 µM): 146% and 106%; pIC50 (curve of compound): < 5.52

Which results are given for `Cn1ncc(Cl)c1-c1cc(C(=O)NC(CN)Cc2cccc(F)c2)sc1Cl` (stereo not given)?
viability, T/C (compound 0.0316 µM): 89.5% and 99.6%; viability, T/C (compound 0.1 µM): 80.9% and 77%; viability, T/C (compound 0.316 µM): 86.6% and 67.6%; viability, T/C (compound 1 µM): 72.8% and 61.9%; viability, T/C (compound 3.16 µM): 66.4% and 46%; viability, T/C (compound 10 µM): 0.28% and 0.56%; pIC50 (curve of compound): 5.39 and 5.76

What does the source list for `Cn1nccc1Nc1nccc(-c2ccn(C(CO)c3ccc(Cl)c(F)c3)c(=O)c2)n1` (stereo not given)?
viability, T/C (compound 0.0316 µM): 96.2% and 97.2%; viability, T/C (compound 0.1 µM): 94.1% and 93.3%; viability, T/C (compound 0.316 µM): 106% and 92.3%; viability, T/C (compound 1 µM): 109% and 104%; viability, T/C (compound 3.16 µM): 124% and 111%; viability, T/C (compound 10 µM): 132% and 127%; pIC50 (curve of compound): < 5.00

Which results are given for `Cn1ncnc1[C@H]1c2n[nH]c(=O)c3cc(F)cc(c23)N[C@@H]1c1ccc(F)cc1`?
viability, T/C (compound 0.000316 µM): 104% and 97.7%; viability, T/C (compound 0.001 µM): 91%; viability, T/C (compound 0.00316 µM): 92.1% and 91.5%; viability, T/C (compound 0.01 µM): 86.4% and 86.3%; viability, T/C (compound 0.0316 µM): 83% and 86.4%; viability, T/C (compound 0.1 µM): 89.5% and 79.1%; pIC50 (curve of compound): < 7.00

With `Cn1cnc2c(F)c(Nc3ccc(Br)cc3Cl)c(C(=O)NOCCO)cc21` + CC(C)NCC(C(=O)N1CCN(c2ncnc3c2C(C)CC3O)CC1)c1ccc(Cl)cc1 as the molecule, how does the pIC50 (curve of first compound, second compound 0.1 µM) read?
Its pIC50 is < 5.52.

And the pIC50 (curve of first compound, second compound 0.316 µM)?
The pIC50 was 5.75.

And the pIC50 (curve of first compound, second compound 1 µM)?
The pIC50 was 6.48.

What about the pIC50 (curve of first compound, second compound 3.16 µM) of the same molecule?
The pIC50 was 7.20.

What about the pIC50 (curve of first compound, second compound 10 µM) of the same molecule?
Its pIC50 is > 8.02.

What about the viability, T/C (second compound 0.1 µM, first compound 0.00949 µM) of the same molecule?
Its viability, T/C is 97.8%.

And the viability, T/C (second compound 0.1 µM, first compound 0.03 µM)?
The viability, T/C was 88.1%.

What about the viability, T/C (second compound 0.1 µM, first compound 0.0949 µM) of the same molecule?
The viability, T/C was 85.2%.

And the viability, T/C (second compound 0.1 µM, first compound 0.3 µM)?
Its viability, T/C is 83.8%.

What about the viability, T/C (second compound 0.1 µM, first compound 0.949 µM) of the same molecule?
The viability, T/C was 101%.

What about the viability, T/C (second compound 0.1 µM, first compound 3 µM) of the same molecule?
The viability, T/C was 105%.

What about the viability, T/C (second compound 0.316 µM, first compound 0.00949 µM) of the same molecule?
Its viability, T/C is 74.9%.

And the viability, T/C (second compound 0.316 µM, first compound 0.03 µM)?
The viability, T/C was 73.3%.

What about the viability, T/C (second compound 0.316 µM, first compound 0.0949 µM) of the same molecule?
The viability, T/C was 69.6%.

And the viability, T/C (second compound 0.316 µM, first compound 0.3 µM)?
Its viability, T/C is 55%.

And the viability, T/C (second compound 0.316 µM, first compound 0.949 µM)?
Its viability, T/C is 56.6%.

And the viability, T/C (second compound 0.316 µM, first compound 3 µM)?
The viability, T/C was 46.7%.

And the viability, T/C (second compound 1 µM, first compound 0.00949 µM)?
The viability, T/C was 58.9%.

And the viability, T/C (second compound 1 µM, first compound 0.03 µM)?
Its viability, T/C is 68.2%.

What about the viability, T/C (second compound 1 µM, first compound 0.0949 µM) of the same molecule?
The viability, T/C was 56%.

What about the viability, T/C (second compound 1 µM, first compound 0.3 µM) of the same molecule?
The viability, T/C was 47.2%.

And the viability, T/C (second compound 1 µM, first compound 0.949 µM)?
The viability, T/C was 42.4%.

And the viability, T/C (second compound 1 µM, first compound 3 µM)?
The viability, T/C was 22.4%.

What about the viability, T/C (second compound 3.16 µM, first compound 0.00949 µM) of the same molecule?
Its viability, T/C is 57.1%.

And the viability, T/C (second compound 3.16 µM, first compound 0.03 µM)?
The viability, T/C was 64%.

And the viability, T/C (second compound 3.16 µM, first compound 0.0949 µM)?
Its viability, T/C is 42.5%.

And the viability, T/C (second compound 3.16 µM, first compound 0.3 µM)?
Its viability, T/C is 33.4%.

And the viability, T/C (second compound 3.16 µM, first compound 0.949 µM)?
Its viability, T/C is 27.5%.

What about the viability, T/C (second compound 3.16 µM, first compound 3 µM) of the same molecule?
The viability, T/C was 11.3%.

And the viability, T/C (second compound 10 µM, first compound 0.00949 µM)?
Its viability, T/C is 46.1%.

And the viability, T/C (second compound 10 µM, first compound 0.03 µM)?
The viability, T/C was 46.7%.

What about the viability, T/C (second compound 10 µM, first compound 0.0949 µM) of the same molecule?
The viability, T/C was 33.6%.

What about the viability, T/C (second compound 10 µM, first compound 0.3 µM) of the same molecule?
Its viability, T/C is 24.9%.

And the viability, T/C (second compound 10 µM, first compound 0.949 µM)?
Its viability, T/C is 18.6%.

What about the viability, T/C (second compound 10 µM, first compound 3 µM) of the same molecule?
The viability, T/C was 3.49%.
